Data: patent US8465726B2, “Stilbene derivatives and their use for binding and imaging amyloid plaques” (The Trustees of the University of Pennsylvania, priority 2004, dated 2013)

Key:
[1] = Organ distribution in normal mice after iv injection; type: in vivo; settings: ICR mice
Protocol: The organs of interest were removed and weighed, and the radioactivity was assayed for radioactivity content with an automatic gamma counter. The percentage dose per organ was calculated by a comparison of the tissue counts to suitably diluted aliquots of the injected material. Total activities of blood were calculated under the assumption that they were 7% of the total body weight. The % dose/g of samples was calculated by comparing the sample counts with the count of the diluted initial dose.

[2] = system: amyloid deposits / Aβ plaques in the brain; settings: cited from earlier work

Biodistribution, Blood ([1]; 2 min after iv injection) [% dose/g]	Biodistribution, Bone ([1]; 2 min after iv injection) [% dose/g]	Biodistribution, Brain ([1]; 2 min after iv injection) [% dose/g]	Biodistribution, Blood ([1]; 30 min after iv injection) [% dose/g]	Biodistribution, Bone ([1]; 30 min after iv injection) [% dose/g]	Biodistribution, Brain ([1]; 30 min after iv injection) [% dose/g]	Biodistribution, Blood ([1]; 1 hr after iv injection) [% dose/g]	Biodistribution, Bone ([1]; 1 hr after iv injection) [% dose/g]	Biodistribution, Brain ([1]; 1 hr after iv injection) [% dose/g]	Biodistribution, Blood ([1]; 2 hr after iv injection) [% dose/g]	Biodistribution, Bone ([1]; 2 hr after iv injection) [% dose/g]	Biodistribution, Brain ([1]; 2 hr after iv injection) [% dose/g]	SMILES	accumulation in the frontal cortex ([2]; mild to moderate AD patients, not in age-matched control subjects)	relative residence time of the brain region of interest versus the pons ([2]; AD patients versus comparison subjects, PET)	retention in the cortex ([2]; patients with diagnosed mild AD)
4.99 ± 0.38	2.24 ± 0.21	7.30 ± 1.05	4.66 ± 0.06	2.29 ± 0.21	2.43 ± 0.03	2.89 ± 0.11	1.66 ± 0.01	1.77 ± 0.11	2.59 ± 0.18	2.35 ± 0.27	1.62 ± 0.03	CNc1ccc(C=Cc2ccc(OCCOCCOCCOCCOCCF)cc2)cc1 [12d, [4-(2-{4-[2-(2-{2-[2-(2-Fluoro-ethoxy)-ethoxy]-ethoxy}-ethoxy)-ethoxy]-phenyl}-vinyl)-phenyl]-methyl-amine]	–	–	–
–	–	–	–	–	–	–	–	–	–	–	–	[11CH3]Nc1ccc(/C=C/c2ccc(O)cc2)cc1 [[^11C]SB-13]	high accumulation	–	–
–	–	–	–	–	–	–	–	–	–	2.74	–	CNc1ccc(C=Cc2ccc(OCCOCCOCC[18F])cc2)cc1 [[^18F]12b, [^18F]{4-[2-(4-{2-[2-(2-Fluoro-ethoxy)-ethoxy]-ethoxy}-phenyl)-vinyl]-phenyl}-methyl-amine]	–	–	–
–	–	–	–	–	–	–	–	–	–	–	–	CC(=C(C#N)C#N)c1ccc2cc(N(C)CCF)ccc2c1 [[^18F]FDDNP]	–	significantly higher in AD patients	–
–	–	–	–	–	–	–	–	–	–	–	–	[11CH3]Nc1ccc(-c2nc3ccc(O)cc3s2)cc1 [[^11C]6-OH-BTA-1]	–	–	marked retention
3.22 ± 0.20	2.31 ± 0.12	6.59 ± 0.19	1.88 ± 0.08	1.00 ± 0.02	1.27 ± 0.03	1.81 ± 0.48	0.98 ± 0.27	1.20 ± 0.10	1.60 ± 0.12	1.50 ± 0.05	1.21 ± 0.06	CNc1ccc(C=Cc2ccc(OCCOCCOCCOCCF)cc2)cc1 [12c, (4-{2-[4-(2-{2-[2-(2-Fluoro-ethoxy)-ethoxy]-ethoxy}-ethoxy)-phenyl]-vinyl}-phenyl)-methyl-amine]	–	–	–
2.64 ± 0.55	1.89 ± 0.25	8.14 ± 2.03	2.42 ± 0.27	1.40 ± 0.11	3.00 ± 0.16	2.04 ± 0.16	1.71 ± 0.23	2.60 ± 0.22	2.77 ± 0.63	2.88 ± 0.07	2.14 ± 0.06	CNc1ccc(C=Cc2ccc(OCCOCCF)cc2)cc1 [12a, [4-(2-{4-[2-(2-Fluoro-ethoxy)-ethoxy]-phenyl}-vinyl)-phenyl]-methyl-amine]	–	–	–
